Series [1] deals with Leishmania donovani. The series is described as follows: Antileishmanial activity against Leishmania donovani MHOM/80/IN/Dd8 promastigotes infected in THP-1 cells assessed as measured after 48 hrs by MTT assay. Type of series: functional, organism-based.
The nature of series [2]: Solubility of the compound in 20% DMSO. The format is physicochemical.
The test system of series [3] is THP-1. In words: Cytotoxicity against differentiated human THP-1 cells measured after 48 hrs by MTT assay. The format is cell-based. The note with it: THP-1, 48 h. In general terms: Tetrazolium dyes change colour on reduction, which living cells bring about.
Series [4] can be described thus: Selectivity index, ratio of IC50 for differentiated human THP-1 cells to IC50 for Leishmania donovani MHOM/80/IN/Dd8 promastigotes. The format is toxicity. The note with it: differentiated THP-1 cells, read-out: Ratio IC50.
Series [5] has as its system A549. The series is described as follows: Cytotoxicity against human A-549 cells assessed as reduction in cell viability at 10 uM measured after 24 hrs by MTT assay relative to control. The format is functional, cell-based. The note with it: A549, 24 h.
For series [6], the system named is HeLa. The series is described as follows: Cytotoxicity against human HeLa cells assessed as reduction in cell viability at 10 uM measured after 24 hrs by MTT assay relative to control. Type of series: functional, cell-based.
For series [7], the system named is HepG2. The series is described as follows: Cytotoxicity against human HepG2 cells assessed as reduction in cell viability at 10 uM measured after 24 hrs by MTT assay relative to control. The format is functional, cell-based. To be noted: HepG2, 24 h.
The test system of series [8] is MCF7. In words: Cytotoxicity against human MCF-7 cells assessed as reduction in cell viability at 10 uM measured after 24 hrs by MTT assay relative to control. To be noted: MCF7, 24 h. Type of series: functional, cell-based.
Series [9] relates to L132. The series is described as follows: Cytotoxicity against human L-132 cells assessed as reduction in cell viability at 10 uM measured after 24 hrs by MTT assay relative to control. The note with it: L132, 24 h. The format is cell-based.
Series [10] has as its system A549. The series is described as follows: Induction of apoptosis in human A549 cells at 10 uM measured after 6 hrs by Annexin V/Propidium iodide staining based confocal microscopy. The format is functional, cell-based.
For series [11], the system named is MCF7. In words: Induction of apoptosis in human MCF7 cells at 10 uM measured after 6 hrs by Annexin V/Propidium iodide staining based confocal microscopy. Type of series: functional, cell-based.
Series [12] is described as follows: Inhibition of IKK in human HeLa S3 cells using biotinylated IkaapaB-alpha by ELISA phosphorylation assay. The format is cell-based. On the technique in general: ELISA stands for enzyme-linked immunosorbent assay.
A short description of series [13]: Inhibition of IKK (unknown origin). Also noted: species or system Homo sapiens.
The mark [14] stands for this setting: Leishmania donovani, MHOM/80/IN/Dd8, THP-1, 48 h, read-out: IC50.

Calls of active or inactive are those of the source. The rule behind the calls is not given here.

As to `CCCCC(=O)Nc1ccc2[nH]c3c(C)nc(C(=O)OC)cc3c2c1`, the IC50 in series [1] (setting [14]) was over 100 µM.
As for `COC(=O)c1cc2c([nH]c3ccc(NC(=O)c4ccc(OC)cc4)cc32)c(C)n1`, in [1], the IC50 entry is “Nd(Insoluble)”. Also, in series [2], the solubility entry is “Insoluble”.
For `COC(=O)c1cc2c([nH]c3ccc(NC(=O)c4cccs4)cc32)c(C)n1`, the half-inhibitory concentration (IC50) in series [1] (setting [14]) was over 100 µM.
On the same count and under the same terms, the same measure for `COC(=O)c1cc2c([nH]c3ccc(NC(=O)c4ccccc4)cc32)c(C)n1`: over 100 µM.
With `COC(=O)c1cc2c([nH]c3ccc(NC(=O)Oc4ccc([N+](=O)[O-])cc4)cc32)c(C)n1`, in series [1], the IC50 entry is listed as “Nd(Insoluble)”. Moreover, the solubility result in series [2] is on record as “Insoluble”.
Take `CCCCCCCCCCCCCCCCOP(=O)([O-])OCC[N+](C)(C)C` [MILTEFOSINE]: the IC50 was 11.9 µM in series [1] (setting [14]) and 31.5 µM in series [3]. Moreover, the selectivity ratio in [4] was determined as 2.64.
In the case of `COC(=O)c1cc2c([nH]c3ccc(NC(=O)c4ccc(C(C)(C)C)cc4)cc32)c(C)n1`, the IC50 in [5] turned out to be 4.72 µM; in series [6], 3.59 µM; in series [7], 3.65 µM; in series [8], 4.17 µM; in series [9] it was 3.26 µM; in series [1] (setting [14]), 68 µM. The IC50 in series [3] stood at 32 µM. Further, the result in [10] and in series [11] was Active. In addition, the selectivity ratio in series [4] came out at 0.47.
`COC(=O)c1cc2c([nH]c3ccc(N)cc32)c(C)n1`: the IC50 in series [1] (setting [14]) was over 100 µM.
Still for that read-out and setting: the value for `COC(=O)c1cc2c([nH]c3ccc(NC(=O)c4ccco4)cc32)c(C)n1` was over 100 µM.
Consider `COC(=O)c1cc2c([nH]c3ccc(NC(=O)c4ccc(C)cc4)cc32)c(C)n1`, for which the IC50 entry in series [1] is “Nd(Insoluble)”. For the same compound, in series [2], the solubility entry was “Insoluble”.
On to `COC(=O)c1cc2c([nH]c3ccc(NC(=O)COc4ccccc4)cc32)c(C)n1`, for which, in series [1], the IC50 entry is given as “Nd(Insoluble)”. The solubility result in series [2] was “Insoluble”.
The like results for `COC(=O)c1cc2c([nH]c3ccc(NC(=O)/C=C/c4ccccc4)cc32)c(C)n1` were, in that order, “Nd(Insoluble)” and “Insoluble”.
On to `COC(=O)c1cc2c([nH]c3ccc(NC(=O)c4ccc(C(F)(F)F)cc4)cc32)c(C)n1`, for which the IC50 result in series [1] is given as “Nd(Insoluble)”. Further, in series [2], the solubility result is on record as “Insoluble”.
`COC(=O)c1cc2c([nH]c3ccc(NC(=O)c4ccc5ccccc5c4)cc32)c(C)n1`: the IC50 result in series [1] is listed as “Nd(Insoluble)”. For the same compound, in [2], the solubility entry is “Insoluble”.
On to `COC(=O)c1cc2c([nH]c3ccc(NC(=O)c4ccccc4C(F)(F)F)cc32)c(C)n1`, for which the IC50 in series [1] (setting [14]) is over 100 µM.
Turning to `Clc1cc2c([nH]c3cnccc32)c(Cl)c1OCC1CC1`, the half-inhibitory concentration (IC50) in [12] is 0.08 µM.
As to `COC(=O)c1cc2c([nH]c3ccc([N+](=O)[O-])cc32)c(C)n1`, in series [1] (setting [14]), the IC50 is over 100 µM.
`COC(=O)c1cc2c([nH]c3ccccc32)c(C)n1`: the IC50 in [5] was determined as 37.8 µM; in [6], 35.6 µM; in series [7], 39.6 µM; in [8], 45 µM; in series [9], 39.3 µM; in [1] (setting [14]), 9 µM. For the same compound, the IC50 in series [3] was over 100 µM. Besides, in series [4], the selectivity ratio was over 11.1.
For `COc1ccc2[nH]c3cnccc3c2c1Br`, the IC50 in series [13] came to 1 µM.
For the compound `CC(=O)O[C@@]12CO[C@@H]1C[C@H](O)[C@@]1(C)C(=O)[C@H](O)C3=C(C)[C@@H](OC(=O)[C@H](O)[C@@H](NC(=O)OC(C)(C)C)c4ccccc4)C[C@@](O)([C@@H](OC(=O)c4ccccc4)[C@H]21)C3(C)C` [DOCETAXEL ANHYDROUS], the IC50 in series [5] came to 3.41 µM; in series [6], 3.23 µM; in series [7], 2.86 µM; in series [8], 3.6 µM; in series [9], 1.68 µM.
`COC(=O)c1cc2c([nH]c3ccc(NC(=O)c4cc(OC)c(OC)c(OC)c4)cc32)c(C)n1`: the IC50 in series [1] (setting [14]) amounted to 100 µM.
Regarding `COC(=O)c1cc2c([nH]c3ccc(NC(=O)c4ccc(Br)cc4)cc32)c(C)n1`, the IC50 result in [1] is “Nd(Insoluble)”. Further, the solubility entry in series [2] is recorded as “Insoluble”.
As to `COC(=O)c1cc2c([nH]c3ccc(NC(=O)c4cc(C(F)(F)F)cc(C(F)(F)F)c4)cc32)c(C)n1`, the IC50 was 15.5 µM in series [5]; 5.3 µM in [6]; 6.15 µM in [7]; 13.4 µM in series [8]; 11.2 µM in series [9]; “Nd(Insoluble)” in series [1]. The result in series [10] and in series [11] was Active. The solubility entry in [2] is on record as “Insoluble”.
In the case of `COC(=O)c1cc2c([nH]c3ccc(NC(=O)c4cc(C)oc4C)cc32)c(C)n1`, the IC50 in [1] (setting [14]) was over 100 µM.
With `CCCCCCCCCCCC(=O)Nc1ccc2[nH]c3c(C)nc(C(=O)OC)cc3c2c1`, the IC50 result in [1] is recorded as “Nd(Insoluble)”. Besides, in series [2], the solubility entry is recorded as “Insoluble”.
For the compound `COC(=O)c1cc2c([nH]c3ccc(NC(C)=O)cc32)c(C)n1`, the IC50 in [1] (setting [14]) is over 100 µM.
As to `COCC(=O)Nc1ccc2[nH]c3c(C)nc(C(=O)OC)cc3c2c1`, the half-inhibitory concentration (IC50) in series [1] (setting [14]) was over 100 µM.
Consider `COC(=O)c1cc2c([nH]c3ccc(NC(=O)C4CCCCC4)cc32)c(C)n1`, for which the IC50 was 23.5 µM in series [1] (setting [14]) and 77 µM in series [3]. Besides, in series [4], the selectivity ratio was 3.27.

One may read the IC50 as the concentration that gives 50% inhibition.
